According to ChEMBL document CHEMBL1145086, “Selectivity fields: comparative molecular field analysis (CoMFA) of the glycine/NMDA and AMPA receptors” (J Med Chem, 2003):
“And” between values parts separate entries of the source, which are not always exact repeats. Equal values may be shown once.

Key:
[1] = target: Glutamate receptor ionotropic, AMPA (Rattus norvegicus, UniProt P19490+P19491+P19492+P19493); experiment: Binding selectivity towards Ionotropic glutamate receptor AMPA was determined by using [3H]- AMPA; type: protein-complex assay
[2] = target: Glutamate receptor ionotropic, NMDA 1 (Rattus norvegicus, UniProt P35439); experiment: Binding selectivity towards N-methyl-D-aspartate glutamate receptor 1 was determined by using [3H]- glycine/NMDA

SMILES	Ki [1] [µM]	Ki [2]
O=C[n+]1cccn1-c1cc2c(cc1Cl)NC(C(=O)O)n1nc(C(=O)O)cc1-2 (stereo not given)	0.27	8.2 µM
O=C(O)c1cc2n(n1)C(C(=O)O)Nc1cc(Cl)c(Cl)cc1-2 (stereo not given)	2.4	0.16 µM
CCOC(=O)c1cc2n(n1)C(C(=O)O)Nc1cc(Cl)c(-n3ccc[n+]3C=O)cc1-2 (stereo not given)	1.4	57 µM
O=C[n+]1cccn1-c1cc2c(cc1Cl)[nH]c(=O)c1nc(C(=O)O)nn12	0.53	28 µM
CCOC(=O)c1cc2n(n1)C(C(=O)O)Nc1cc(Cl)c([N+](=O)[O-])cc1-2 (stereo not given)	8.2	10.6 µM
CCOC(=O)c1nc2c(O)nc3cc(Cl)c(-n4cccn4)cc3n2n1	18.4	23 µM
O=C(O)c1cc2n(n1)C(C(=O)O)Nc1cc(Cl)c(-n3ccnc3)cc1-2 (stereo not given)	0.14	8.3 µM
CCOC(=O)c1nc2c(=O)[nH]c3cc(Cl)c(-n4ccc[n+]4C=O)cc3n2n1	1.9	19 µM
CCOC(=O)c1cc2n(n1)C(C(=O)O)Nc1cc(Cl)ccc1-2 (stereo not given)	72	26.5 µM
O=C(O)c1cc2n(n1)C(C(=O)O)Nc1cc(Cl)c([N+](=O)[O-])cc1-2 (stereo not given)	0.74	1.1 µM

Other lines, results leading:

Ki [1] [µM]	Ki [2]	SMILES
12.4	1.41 µM	O=C(O)c1cc2n(n1)C(C(=O)O)Nc1ccccc1-2 (stereo not given)
0.86	0.86 µM and 5.3 µM	O=C(O)c1nc2c(=O)[nH]c3cc(Cl)c(-n4cccn4)cc3n2n1
2.3	0.48 µM	O=C(O)c1cc2n(n1)C(C(=O)O)Nc1cc(Cl)ccc1-2 (stereo not given)
4.9	4.8 µM	CCOC(=O)c1nc2c(O)nc3ccc(Cl)c(Cl)c3n2n1
0.14	33.5 µM	O=C(O)c1nc2c(=O)[nH]c3cc(Cl)c(-n4ccnc4)cc3n2n1
–	3.6 µM	Nc1cc2c(cc1Cl)nc(O)c1nc(C(=O)O)nn12
42	33.3 µM	CCOC(=O)c1cc2n(n1)C(C(=O)O)Nc1ccccc1-2 (stereo not given)
–	4.8 µM	CCOC(=O)c1nc2c(=O)[nH]c3cc(Cl)c(N)cc3n2n1
–	10.2 µM	CCOC(=O)c1nc2c(O)nc3cc(Cl)c([N+](=O)[O-])cc3n2n1
